# Data as given in the CheMixHub viscosity set.
# ± gives the uncertainty stated by the source.
# Test: xn = mol fraction of the nth substance listed
compound,measurement,setting,value
CCOC(C)=O + CCCCCC,viscosity,"293.15 K, 101 kPa, x1 = 0.0998",0.3115 ± 0.0084 mPa·s
same,viscosity,"293.15 K, 101 kPa, x1 = 0.2074",0.3152 ± 0.0085 mPa·s
same,viscosity,"293.15 K, 101 kPa, x1 = 0.2978",0.3217 ± 0.0087 mPa·s
same,viscosity,"293.15 K, 101 kPa, x1 = 0.4046",0.3303 ± 0.0089 mPa·s
same,viscosity,"293.15 K, 101 kPa, x1 = 0.5034",0.3416 ± 0.0092 mPa·s
same,viscosity,"293.15 K, 101 kPa, x1 = 0.614",0.3599 ± 0.0097 mPa·s
same,viscosity,"293.15 K, 101 kPa, x1 = 0.6748",0.3683 ± 0.0099 mPa·s
same,viscosity,"293.15 K, 101 kPa, x1 = 0.8018",0.3963 ± 0.011 mPa·s
same,viscosity,"293.15 K, 101 kPa, x1 = 0.9118",0.4248 ± 0.011 mPa·s
same,viscosity,"298.15 K, 101 kPa, x1 = 0.0436",0.29 ± 0.004 mPa·s
same,viscosity,"298.15 K, 101 kPa, x1 = 0.0998",0.2967 ± 0.008 mPa·s
same,viscosity,"298.15 K, 101 kPa, x1 = 0.15",0.293 ± 0.004 mPa·s
same,viscosity,"298.15 K, 101 kPa, x1 = 0.2074",0.3001 ± 0.0081 mPa·s
same,viscosity,"298.15 K, 101 kPa, x1 = 0.2504",0.298 ± 0.004 mPa·s
same,viscosity,"298.15 K, 101 kPa, x1 = 0.2978",0.3052 ± 0.0083 mPa·s
same,viscosity,"298.15 K, 101 kPa, x1 = 0.3494",0.305 ± 0.004 mPa·s
same,viscosity,"298.15 K, 101 kPa, x1 = 0.4046",0.3142 ± 0.0085 mPa·s
same,viscosity,"298.15 K, 101 kPa, x1 = 0.4477",0.314 ± 0.004 mPa·s
same,viscosity,"298.15 K, 101 kPa, x1 = 0.4908",0.319 ± 0.004 mPa·s
same,viscosity,"298.15 K, 101 kPa, x1 = 0.5034",0.3265 ± 0.0088 mPa·s
same,viscosity,"298.15 K, 101 kPa, x1 = 0.5489",0.326 ± 0.004 mPa·s
same,viscosity,"298.15 K, 101 kPa, x1 = 0.614",0.3413 ± 0.0092 mPa·s
same,viscosity,"298.15 K, 101 kPa, x1 = 0.6485",0.342 ± 0.004 mPa·s
same,viscosity,"298.15 K, 101 kPa, x1 = 0.6748",0.3496 ± 0.0094 mPa·s
same,viscosity,"298.15 K, 101 kPa, x1 = 0.7513",0.361 ± 0.004 mPa·s
same,viscosity,"298.15 K, 101 kPa, x1 = 0.8018",0.3755 ± 0.01 mPa·s
same,viscosity,"298.15 K, 101 kPa, x1 = 0.8507",0.384 ± 0.004 mPa·s
same,viscosity,"298.15 K, 101 kPa, x1 = 0.9118",0.402 ± 0.011 mPa·s
same,viscosity,"298.15 K, 101 kPa, x1 = 0.942",0.41 ± 0.004 mPa·s
same,viscosity,"303.15 K, 101 kPa, x1 = 0.0998",0.283 ± 0.0077 mPa·s
same,viscosity,"303.15 K, 101 kPa, x1 = 0.2032",0.2874 ± 0.0045 mPa·s
same,viscosity,"303.15 K, 101 kPa, x1 = 0.2074",0.2861 ± 0.0078 mPa·s
same,viscosity,"303.15 K, 101 kPa, x1 = 0.2978",0.2901 ± 0.0079 mPa·s
same,viscosity,"303.15 K, 101 kPa, x1 = 0.4017",0.3009 ± 0.0046 mPa·s
same,viscosity,"303.15 K, 101 kPa, x1 = 0.4046",0.2991 ± 0.0081 mPa·s
same,viscosity,"303.15 K, 101 kPa, x1 = 0.5013",0.3117 ± 0.0046 mPa·s
same,viscosity,"303.15 K, 101 kPa, x1 = 0.5034",0.3092 ± 0.0084 mPa·s
same,viscosity,"303.15 K, 101 kPa, x1 = 0.599",0.3249 ± 0.0046 mPa·s
same,viscosity,"303.15 K, 101 kPa, x1 = 0.614",0.3231 ± 0.0087 mPa·s
same,viscosity,"303.15 K, 101 kPa, x1 = 0.6748",0.3317 ± 0.009 mPa·s
same,viscosity,"303.15 K, 101 kPa, x1 = 0.8018",0.3565 ± 0.0096 mPa·s
same,viscosity,"303.15 K, 101 kPa, x1 = 0.8203",0.3611 ± 0.0047 mPa·s
same,viscosity,"303.15 K, 101 kPa, x1 = 0.9118",0.3812 ± 0.01 mPa·s
same,viscosity,"303.15 K, 101.3 kPa, x1 = 0.106",0.2774 ± 0.0023 mPa·s
same,viscosity,"303.15 K, 101.3 kPa, x1 = 0.1995",0.2799 ± 0.0023 mPa·s
same,viscosity,"303.15 K, 101.3 kPa, x1 = 0.3097",0.2869 ± 0.0023 mPa·s
same,viscosity,"303.15 K, 101.3 kPa, x1 = 0.4073",0.2945 ± 0.0024 mPa·s
same,viscosity,"303.15 K, 101.3 kPa, x1 = 0.5055",0.3045 ± 0.0024 mPa·s
same,viscosity,"303.15 K, 101.3 kPa, x1 = 0.6094",0.3179 ± 0.0025 mPa·s
same,viscosity,"303.15 K, 101.3 kPa, x1 = 0.7062",0.3331 ± 0.0026 mPa·s
same,viscosity,"303.15 K, 101.3 kPa, x1 = 0.8061",0.3523 ± 0.0027 mPa·s
same,viscosity,"303.15 K, 101.3 kPa, x1 = 0.9036",0.3748 ± 0.0028 mPa·s
same,viscosity,"308.15 K, 101 kPa, x1 = 0.0436",0.272 ± 0.004 mPa·s
same,viscosity,"308.15 K, 101 kPa, x1 = 0.15",0.274 ± 0.004 mPa·s
same,viscosity,"308.15 K, 101 kPa, x1 = 0.2504",0.277 ± 0.004 mPa·s
same,viscosity,"308.15 K, 101 kPa, x1 = 0.3494",0.282 ± 0.004 mPa·s
same,viscosity,"308.15 K, 101 kPa, x1 = 0.4477",0.29 ± 0.004 mPa·s
same,viscosity,"308.15 K, 101 kPa, x1 = 0.4908",0.294 ± 0.004 mPa·s
same,viscosity,"308.15 K, 101 kPa, x1 = 0.5489",0.3 ± 0.004 mPa·s
same,viscosity,"308.15 K, 101 kPa, x1 = 0.6485",0.313 ± 0.004 mPa·s
same,viscosity,"308.15 K, 101 kPa, x1 = 0.7513",0.33 ± 0.004 mPa·s
same,viscosity,"308.15 K, 101 kPa, x1 = 0.8507",0.349 ± 0.004 mPa·s
same,viscosity,"308.15 K, 101 kPa, x1 = 0.942",0.371 ± 0.004 mPa·s
same,viscosity,"313.15 K, 101 kPa, x1 = 0.0998",0.2582 ± 0.0071 mPa·s
same,viscosity,"313.15 K, 101 kPa, x1 = 0.2074",0.2604 ± 0.0071 mPa·s
same,viscosity,"313.15 K, 101 kPa, x1 = 0.2978",0.2643 ± 0.0072 mPa·s
same,viscosity,"313.15 K, 101 kPa, x1 = 0.4046",0.2723 ± 0.0074 mPa·s
same,viscosity,"313.15 K, 101 kPa, x1 = 0.5034",0.2806 ± 0.0076 mPa·s
same,viscosity,"313.15 K, 101 kPa, x1 = 0.614",0.2933 ± 0.008 mPa·s
same,viscosity,"313.15 K, 101 kPa, x1 = 0.6748",0.3004 ± 0.0081 mPa·s
same,viscosity,"313.15 K, 101 kPa, x1 = 0.8018",0.3224 ± 0.0087 mPa·s
same,viscosity,"313.15 K, 101 kPa, x1 = 0.9118",0.3443 ± 0.0093 mPa·s
Clc1cccc(Cl)c1 + CCCCCC,viscosity,"298.15 K, 100 kPa, x1 = 0.0593",0.327 ± 0.007 mPa·s
same,viscosity,"298.15 K, 100 kPa, x1 = 0.1575",0.36 ± 0.008 mPa·s
same,viscosity,"298.15 K, 100 kPa, x1 = 0.255",0.4 ± 0.009 mPa·s
same,viscosity,"298.15 K, 100 kPa, x1 = 0.3473",0.446 ± 0.01 mPa·s
same,viscosity,"298.15 K, 100 kPa, x1 = 0.4204",0.487 ± 0.01 mPa·s
same,viscosity,"298.15 K, 100 kPa, x1 = 0.48",0.524 ± 0.011 mPa·s
same,viscosity,"298.15 K, 100 kPa, x1 = 0.5322",0.56 ± 0.012 mPa·s
same,viscosity,"298.15 K, 100 kPa, x1 = 0.5704",0.588 ± 0.013 mPa·s
same,viscosity,"298.15 K, 100 kPa, x1 = 0.6295",0.634 ± 0.014 mPa·s
same,viscosity,"298.15 K, 100 kPa, x1 = 0.6705",0.669 ± 0.014 mPa·s
same,viscosity,"298.15 K, 100 kPa, x1 = 0.7263",0.719 ± 0.015 mPa·s
same,viscosity,"298.15 K, 100 kPa, x1 = 0.8186",0.81 ± 0.017 mPa·s
same,viscosity,"298.15 K, 100 kPa, x1 = 0.9465",0.952 ± 0.02 mPa·s
same,viscosity,"308.15 K, 100 kPa, x1 = 0.0593",0.301 ± 0.006 mPa·s
same,viscosity,"308.15 K, 100 kPa, x1 = 0.1575",0.331 ± 0.007 mPa·s
same,viscosity,"308.15 K, 100 kPa, x1 = 0.255",0.368 ± 0.008 mPa·s
same,viscosity,"308.15 K, 100 kPa, x1 = 0.3473",0.407 ± 0.009 mPa·s
same,viscosity,"308.15 K, 100 kPa, x1 = 0.4204",0.442 ± 0.009 mPa·s
same,viscosity,"308.15 K, 100 kPa, x1 = 0.48",0.473 ± 0.01 mPa·s
same,viscosity,"308.15 K, 100 kPa, x1 = 0.5322",0.504 ± 0.011 mPa·s
same,viscosity,"308.15 K, 100 kPa, x1 = 0.5704",0.528 ± 0.011 mPa·s
same,viscosity,"308.15 K, 100 kPa, x1 = 0.6295",0.568 ± 0.012 mPa·s
same,viscosity,"308.15 K, 100 kPa, x1 = 0.6705",0.598 ± 0.013 mPa·s
same,viscosity,"308.15 K, 100 kPa, x1 = 0.7263",0.642 ± 0.014 mPa·s
same,viscosity,"308.15 K, 100 kPa, x1 = 0.8186",0.724 ± 0.015 mPa·s
same,viscosity,"308.15 K, 100 kPa, x1 = 0.9465",0.851 ± 0.018 mPa·s
same,viscosity,"318.15 K, 100 kPa, x1 = 0.0593",0.282 ± 0.006 mPa·s
same,viscosity,"318.15 K, 100 kPa, x1 = 0.1575",0.309 ± 0.007 mPa·s
same,viscosity,"318.15 K, 100 kPa, x1 = 0.255",0.338 ± 0.007 mPa·s
same,viscosity,"318.15 K, 100 kPa, x1 = 0.3473",0.37 ± 0.008 mPa·s
same,viscosity,"318.15 K, 100 kPa, x1 = 0.4204",0.4 ± 0.009 mPa·s
same,viscosity,"318.15 K, 100 kPa, x1 = 0.48",0.427 ± 0.009 mPa·s
same,viscosity,"318.15 K, 100 kPa, x1 = 0.5322",0.454 ± 0.01 mPa·s
same,viscosity,"318.15 K, 100 kPa, x1 = 0.5704",0.475 ± 0.01 mPa·s
same,viscosity,"318.15 K, 100 kPa, x1 = 0.6295",0.51 ± 0.011 mPa·s
same,viscosity,"318.15 K, 100 kPa, x1 = 0.6705",0.537 ± 0.011 mPa·s
same,viscosity,"318.15 K, 100 kPa, x1 = 0.7263",0.577 ± 0.012 mPa·s
same,viscosity,"318.15 K, 100 kPa, x1 = 0.8186",0.649 ± 0.014 mPa·s
same,viscosity,"318.15 K, 100 kPa, x1 = 0.9465",0.76 ± 0.016 mPa·s
